Type in all cases: in vivo
Series [1] is described as follows: Pharmacokinetic experiment in rats, LC/MS/MS. Conditions: male, rat, whole blood, SD rats; for AUC: read-out: Area under the curve (AUC, ng/mL.h); for half-life: read-out: Half life (T1/2, h) (converted); for bioavailability: p.o. 10 mg/kg vs i.v. 2 mg/kg, read-out: Bioavailability (F%); for Cmax: read-out: Blood concentration (Cmax, ng/mL). How it is done: Taking SD rats as an example, the drug concentrations in the plasma of rats at different times after i.g. and i.v. administration of compounds of Examples 1, 5, 6, 8, 12, 13, 15, 18, 19, 22, 25, 27 and 29, respectively, were determined by the liquid chromatography-tandem mass spectrometry (LS/MS/MS) method, and the relevant pharmacokinetic parameters were calculated to evaluate the pharmacokinetic properties of example compounds of the present invention in rats.
Healthy adult SD rats, SPF grade, male, purchased from Sippe-Bk Lab Animal Co., Ltd., Shanghai, license number SCXK (Shanghai) 2018-0006, animal certificate number: 20180006006321.
A certain amount of compound was weighed, dissolved in 5% dimethyl sulfoxide (DMSO), subjected to vortex and sonication, added with 0.5% sodium carboxymethyl cellulose (CMC-Na), and sonicated, to prepare a homogeneous solution.
Before administration and 5 min, 15 min, 0.5 h, 1 h, 2 h, 4 h, 6 h, 8 h and 24 h after administration, orbital blood was collected, 0.2 milliliters (mL) of blood being collected each time, and placed in an anticoagulant tube, mixed well, and stored in a −20° C. refrigerator for later use.
The content of the compound in rat whole blood was determined by liquid chromatography-tandem mass spectrometry (LS/MS/MS).
The pharmacokinetic parameters of the compounds after administration were calculated using the non-compartmental model of WinNonLin5.3 software.

The next series deals with ICR mice. Description: Acute toxicity test in mice, single dose, 14 days observation. Conditions: within 14 days from administration. How it is done: (§1) This experiment aims to test the toxic effects of the compounds in mice.
(§2) ICR mice, SPF grade, 6-8 weeks old, half male and half […], purchased from Sippe-Bk Lab Animal Co., Ltd., Shanghai, license number SCXK (Shanghai) 2018-0006, animal certificate number: 20180006010983.
(§3) ICR mice were administered different doses of compounds at a single time, and were continuously observed for 14 days. The animal death, poisoning reaction, body weight change, diet, appearance, behavior, etc. were recorded. At the end point, the animals were dissected, and the organs were taken for histopathological examination.

Assay in series [2]: as above
Conditions: both sexes, mouse, in vivo; ICR mice, single administration; read-out: median lethal dose (LD50). How it is done:
as §1, §2, §3

SMILES strings stand for the structures. Where a name gives a salt, the structure may show the parent alone. Read-outs that look alike come from different tables or passages of the source.

For the compound `Cc1c(NC(=O)c2nc(CNCCO)cn2C)cccc1-c1cccc(NC(=O)c2ccc(CNCCO)cn2)c1Cl` [Example 1, N-(2-chloro-3′-(4-(((2-hydroxyethyl)amino)methyl)-1-methyl-1H-imidazole-2-carboxamido)-2′-methyl-[1,1′-biphenyl]-3-yl)-5-(((2-hydroxyethyl)amino)methyl)picolinamide], in series [1] (iv, i.v., 2 mg/kg), the AUC turned out to be 596 ng·h/mL and the half-life was 2.05 h. The bioavailability (commonly dose-corrected exposure relative to a reference, in per cent) in series [1] (po) worked out at 56%. In addition, in series [1] (po, p.o. (i.g.), 10 mg/kg), the AUC was 1670 ng·h/mL and the Cmax was 415 ng/mL.
With `Cc1c(NC(=O)c2nc(CNCCO)cs2)cccc1-c1cccc(NC(=O)c2ccc(CNCCO)cn2)c1Cl` [Example 2], the “body weight and behavior compared with control group” value in the series on ICR mice is recorded as “no abnormal body weight or behavior”. Besides, the 50% lethal dose (LD50) (in general, the dose expected to kill half of the subjects tested) at 14 days in series [2] is greater than 1000 mg/kg.
For `Cc1c(NC(=O)c2nc3c(s2)CN(C)CC3)cncc1-c1cccc(NC(=O)c2nc3c(n2C)CCN(C)C3)c1C` [Example 5, N-(5-(3-(1,5-dimethyl-4,5,6,7-tetrahydro-1H-imidazo[4,5-c]pyridine-2-carboxamido)-2-methylphenyl)-4-methylpyridin-3-yl)-5-methyl-4,5,6,7-tetrahydrothiazolo[5,4-c]pyridine-2-carboxamide], in series [1] (iv, i.v., 2 mg/kg), the AUC stood at 612 ng·h/mL and the half-life was 2.5 h. For the same compound, the bioavailability in series [1] (po) came out at 68%. For the same compound, in series [1] (po, p.o. (i.g.), 10 mg/kg), the AUC was found to be 2080 ng·h/mL and the Cmax turned out to be 432 ng/mL.
For `Cc1c(NC(=O)c2nc3c(s2)CN(C)CC3)cncc1-c1cccc(NC(=O)c2nc3c(n2C)CCN(CC(C)O)C3)c1C` (stereo not drawn) [Example 6, N-(5-(3-(5-(2-hydroxypropyl)-1-methyl-4,5,6,7-tetrahydro-1H-imidazo[4,5-c]pyridine-2-carboxamido)-2-methylphenyl)-4-methylpyridin-3-yl)-5-methyl-4,5,6,7-tetrahydrothiazolo[5,4-c]pyridine-2-carboxamide] the same measures were 676 ng·h/mL, 1.36 h, 62%, 2100 ng·h/mL and 389 ng/mL.
Take `Cc1c(NC(=O)c2nc3c(s2)CN(C)CC3)cncc1-c1cccc(-c2nc3cc(CN4CC[C@@H](C(=O)O)C4)cc(Cl)c3o2)c1C` [Example 8, (R)-1-((7-chloro-2-(2-methyl-3-(4-methyl-5-(5-methyl-4,5,6,7-tetrahydrothiazolo[5,4-c]pyridine-2-carboxamido)pyridin-3-yl)phenyl)benzo[d]oxazol-5-yl)methyl)pyrrolidine-3-carboxylic acid]: in series [1] (iv, i.v., 2 mg/kg), the AUC amounted to 601 ng·h/mL and the half-life was 1.56 h. Moreover, the bioavailability in series [1] (po) is 55%. Also, in series [1] (po, p.o. (i.g.), 10 mg/kg), the AUC came to 1650 ng·h/mL and the Cmax stood at 402 ng/mL.
Regarding `Cc1c(NC(=O)c2nc3c(n2C)CCN(C[C@H](C)O)C3)cccc1-c1cncc(-c2nc3cc(CN4CC[C@@H](C(=O)O)C4)cc(Cl)c3o2)c1C` [Example 12], the AUC in series [1] (iv, i.v., 2 mg/kg) was found to be 586 ng·h/mL. Also, the bioavailability in series [1] (po) stood at 60%. Further, in series [1] (po, p.o. (i.g.), 10 mg/kg), the AUC amounted to 1760 ng·h/mL and the Cmax was 442 ng/mL.
Take `Cc1c(NC(=O)c2nc3c(n2C)CCN(C)C3)cccc1-c1cncc(-c2nc3cc(CN4CC[C@@H](C(=O)O)C4)cc(Cl)c3o2)c1C` [Example 13]: the “body weight and behavior compared with control group” value in the series with ICR mice is listed as “no abnormal body weight or behavior”. Moreover, the LD50 at 14 days in series [2] is greater than 1000 mg/kg. In series [1] (iv, i.v., 2 mg/kg), the AUC came out at 630 ng·h/mL and the half-life was 1.43 h. Also, the bioavailability in series [1] (po) stood at 54%. Further, in series [1] (po, p.o. (i.g.), 10 mg/kg), the AUC was 1700 ng·h/mL and the Cmax was 431 ng/mL.
For the compound `Cc1c(NC(=O)c2nc3c(s2)CNCC3)cccc1-c1cccc(-c2nc3cc(CN4CC[C@@H](C(=O)O)C4)cnc3o2)c1C` [Example 18, (R)-1-((2-(2,2′-dimethyl-3′-(4,5,6,7-tetrahydrothiazolo[5,4-c]pyridine-2-carboxamido)-[1,1′-biphenyl]-3-yl)oxazolo[5,4-b]pyridin-6-yl)methyl)pyrrolidine-3-carboxylic acid trifluoroacetate], in series [1] (iv, i.v., 2 mg/kg), the AUC is 578 ng·h/mL and the half-life is 2.42 h. The bioavailability in series [1] (po) was found to be 53%. Moreover, in series [1] (po, p.o. (i.g.), 10 mg/kg), the AUC worked out at 1530 ng·h/mL and the Cmax was determined as 365 ng/mL.
On to `Cc1c(NC(=O)c2nc3c(n2C)CCNC3)cccc1-c1cncc(-c2nc3cc(CN4CC[C@@H](C(=O)O)C4)cc(Cl)c3o2)c1C` [Example 19, (R)-1-(((7-chloro-2-(4-methyl-5-(2-methyl-3-(1-methyl-4,5,6,7-tetrahydro-1H-imidazole)[4,5-c]pyridine-2-carboxamido)phenyl)pyridin-3-yl)benzo[d]oxazol-5-yl)methyl)pyrrolidine-3-carboxylic acid], for which the “body weight and behavior compared with control group” value with ICR mice is on record as “no abnormal body weight or behavior”. In series [2], the LD50 at 14 days was greater than 1000 mg/kg. Besides, in series [1] (iv, i.v., 2 mg/kg), the AUC came out at 560 ng·h/mL and the half-life is 2.21 h. Also, the bioavailability in series [1] (po) was 65%. In addition, in series [1] (po, p.o. (i.g.), 10 mg/kg), the AUC worked out at 1820 ng·h/mL and the Cmax turned out to be 407 ng/mL.
On to `Cc1c(NC(=O)c2nc3c(n2C)CCN(C)C3)cncc1-c1cccc(-c2nc3cc(CN4CC[C@@H](C(=O)O)C4)cc(Cl)c3o2)c1C` [Example 21], for which the “body weight and behavior compared with control group” value in the series on ICR mice was “no abnormal body weight or behavior”. Moreover, the 50% lethal dose (LD50) at 14 days in series [2] was greater than 1000 mg/kg.
As to `Cc1c(NC(=O)c2nc3c(s2)CN(C[C@H](C)O)CC3)cccc1-c1cccc(-c2nc3cc(CN4CC[C@@H](C(=O)O)C4)cnc3o2)c1C` [Example 22, (R)-1-((2-(3′-(5-((S)-2-hydroxypropyl)-4,5,6,7-tetrahydrothiazolo[5,4-c]pyridine-2-carboxamido)-2,2′-dimethyl-[1,1′-biphenyl]-3-yl)oxazolo[5,4-b]pyridin-6-yl)methyl)pyrrolidine-3-carboxylic acid], in series [1] (iv, i.v., 2 mg/kg), the AUC turned out to be 578 ng·h/mL and the half-life was 1.46 h. Further, the bioavailability in series [1] (po) is 51%. Moreover, in series [1] (po, p.o. (i.g.), 10 mg/kg), the AUC amounted to 1470 ng·h/mL and the Cmax is 488 ng/mL.
For `Cc1c(NC(=O)c2nc3c(n2C)CCN(C[C@H](C)O)C3)cncc1-c1cccc(NC(=O)c2nc3c(n2C)CCN(C(C)C)C3)c1Cl` [Example 24, (S)—N-(2-chloro-3-(5-(5-(2-hydroxypropyl)-1-methyl-4,5,6,7-tetrahydro-1H-imidazo[4,5-c]pyridine-2-carboxamido)-4-methylpyridin-3-yl)phenyl)-5-isopropyl-1-methyl-4,5,6,7-tetrahydro-1H-imidazo[4,5-c]pyridine-2-carboxamide], in the series on ICR mice, the “body weight and behavior compared with control group” value is “no abnormal body weight or behavior”. In addition, in series [2], the LD50 at 14 days is greater than 1000 mg/kg.
With `Cc1c(NC(=O)c2nc3c(s2)CN(C)CC3)cccc1-c1cncc(-c2nc3cc(CN4CC[C@@H](C(=O)O)C4)cc(C#N)c3o2)c1C` [Example 25], in series [1] (iv, i.v., 2 mg/kg), the AUC is 612 ng·h/mL and the half-life is 2.35 h. In addition, the bioavailability in series [1] (po) was determined as 60%. Further, in series [1] (po, p.o. (i.g.), 10 mg/kg), the AUC worked out at 1840 ng·h/mL and the Cmax was found to be 435 ng/mL.
As for `Cc1c(NC(=O)c2nc3c(n2C)CCN(C[C@H](C)O)C3)cncc1-c1cccc(NC(=O)c2nc3c(n2C)CCN(C[C@H](C)O)C3)c1Cl` [Example 26, N-(5-(2-chloro-3-(5-((S)-2-hydroxypropyl)-1-methyl-4,5,6,7-tetrahydro-1H-imidazo[4,5-c]pyridine-2-carboxamido)phenyl)-4-methylpyridin-3-yl)-5-((S)-2-hydroxypropyl)-1-methyl-4,5,6,7-tetrahydro-1H-imidazo[4,5-c]pyridine-2-carboxamide], in the series on ICR mice, the “body weight and behavior compared with control group” value was “no abnormal body weight or behavior”. For the same compound, the LD50 at 14 days in series [2] is greater than 1000 mg/kg.
As for `Cc1c(NC(=O)c2nc3c(n2C)CCN(CC(C)O)C3)cccc1-c1cccc(-c2nc3cc(CN4CC[C@@H](C(=O)O)C4)ncc3o2)c1C` (stereo partly drawn) [Example 29, (R)-1-((2-(3′-(5-(2-hydroxypropyl)-1-methyl-4,5,6,7-tetrahydro-1H-imidazo[4,5-c]pyridine-2-carboxamido)-2,2′-dimethyl-[1,1′-biphenyl]-3-yl)oxazolo[5,4-c]pyridin-6-yl)methyl)pyrrolidine-3-carboxylic acid], in series [1] (iv, i.v., 2 mg/kg), the AUC is 617 ng·h/mL and the half-life is 2.14 h. In series [1] (po), the bioavailability stood at 48%. Further, in series [1] (po, p.o. (i.g.), 10 mg/kg), the AUC turned out to be 1480 ng·h/mL and the Cmax is 405 ng/mL.

Values taken from patent US20230111910A1, “PD-1/PD-L1 INHIBITOR, PREPARATION METHOD THEREFOR, AND USE THEREOF” (SHANGHAI SYNERGY PHARMACEUTICAL SCIENCES CO., LTD., priority 2020, published 2023).
